Laboratory results from patent publication US7524886B2, “L-(−)-moprolol L-(+)-tartrate” (Aziende Chimiche Riunite Angelini Francesco A.C.R.A.F. …, priority 2004, dated 2009).

Test system: rabbit eye (conjunctiva, iris, cornea)
Test: Ocular tolerability (Draize) in rabbits
Format: in vivo, rabbits (New Zealand White)
Protocol: Two aqueous solutions were used.
The first contained 1% by weight of L-(−)-moprolol hydrochloride (corresponding to 0.87% by weight of L-(−)-moprolol). The second contained 1.14% by weight of L-(−)-moprolol L-(+)-tartrate (2:1) (corresponding to 0.87% by weight of L-(−)-moprolol).
12 male rabbits (New Zealand White) with an average weight of 2 kg and an average age of ten months were used, divided into two groups of six rabbits each. The first group was treated with 0.1 ml of the first test solution three times a day for fifteen days. The second group was treated with 0.1 ml of the second test solution three times a day for fifteen days.
The tolerability was evaluated according to J. Draize et al., Pharmacol. Exp. Ther., 83, 377-390 (1944).

[1] = Draize score, male rabbits, 0.1 ml aqueous solution (0.87% by weight L-(−)-moprolol) three times a day for fifteen days

| Compound | Conjunctiva Lachrymation [1] | Conjunctiva Reddening [1] | Conjunctiva Swelling [1] | Cornea Area of the cornea affected by opacity [1] | Cornea Opacity [1] | Iris [1] | local tolerability (rabbit, in vivo) | Total Score (sum of Draize scores, male rabbits, 0.1 ml aqueous solution (0.87% by weight L-(−)-moprolol) three times a day for fifteen days) | Conjunctiva Lachrymation (rabbit, in vivo) | Conjunctiva Reddening (rabbit, in vivo) | Conjunctiva Swelling (rabbit, in vivo) | Cornea Area of the cornea affected by opacity (rabbit, in vivo) | Cornea Opacity (rabbit, in vivo) | Iris (rabbit, in vivo) | Total Score (rabbit, in vivo) |
| --- | --- | --- | --- | --- | --- | --- | --- | --- | --- | --- | --- | --- | --- | --- | --- |
| COc1ccccc1OC[C@@H](O)CNC(C)C.COc1ccccc1OC[C@@H](O)CNC(C)C.O=C(O)C(O)C(O)C(=O)O [L-(−)-moprolol L-(+)-tartrate, L-(−)-moprolol L-(+)-tartrate (2:1)] | 1 | 0 | 0 | 0 | 0 | 0 | better local tolerability | 1 |  |  |  |  |  |  |  |
| COc1ccccc1OC[C@@H](O)CNC(C)C.Cl [L-(−)-moprolol hydrochloride, reference compound] |  |  |  |  |  |  |  |  | 2 | 1 | 2 | 0 | 0 | 0 | 5 |
